Four compounds from patent US20240116918A1, “SUBSTITUTED TRICYCLIC COMPOUND AS PRMT5 INHIBITOR AND USE THEREOF” (NANJING SANHOME PHARMACEUTICAL CO., LTD., priority 2019, published 2024) can be followed below.

In one series the test system is Z-138 cells. Description: In vitro cell activity, Z-138 cells, CellTiter-Glo. The conditions noted are these: Z-138, 168 h, human mantle cell lymphoma cells, 7 days. In kind it is cell-based. The procedure: Test compounds: the compounds of the present invention prepared in the above example. Each compound was formulated into a 10 mM stock solution with DMSO, and finally diluted into 8 concentrations for detection, with the final concentrations being 33333.00 nM, 6666.60 nM, 1333.32 nM, 266.66 nM, 53.33 nM, 10.67 nM, 2.13 nM, and 0.43 nM for experiments in Z-138 cells.
2.1.1 Z-138 cell thawing: The cryovial for Z-138 cells was taken out from a liquid nitrogen tank and placed in a 37° C. water bath, and shaken gently for thawing as soon as possible. After thawing, the cryovial was taken out, and sterilized with an alcohol cotton ball, after which the cap was unscrewed. The cell fluid was drawn and injected into a centrifuge tube. 1 mL of complete medium containing 10% horse serum was added, and mixed uniformly. The tube was placed in a centrifuge, and centrifuged at 1000 rpm for 5 min. Afterwards, the supernatant was discarded, and complete medium was added. The mixture was pipetted repeatedly until the cells were completely dispersed and resuspended. The mixture was inoculated in a petri dish at an appropriate concentration, and cultured in a CO2 incubator at 37° C., 5% CO2, and 95% humidified air.
2.2.1 Z-138 cell culture and passage: The cells grew to about 80-90%. The medium (IMDM medium+10% horse serum+1% penicillin-streptomycin) was transferred to a 15 mL centrifuge tube, and centrifuged at 1000 rpm for 5 min. The supernatant was removed. The cells were resuspended in complete medium, and inoculated in a petri dish at the desired density. The dish was placed in an incubator at 37° C., 5% CO2, and 95% humid air. The culture medium was replenished every 2-3 days or the passage was carried out, depending on the cell growth.
After passage, Z-138 cells were resuspended in complete medium at a density of 1000 cells/well and inoculated in a 96-well culture plate. The 36 wells at the outer circumference of the 96-well plate were filled with 200 μL of PBS to prevent the culture conditions of the inner plate wells from being too different from each other due to the faster evaporation of medium at the edge. The leftmost column of the 60 inner wells were blank wells, which were not added with cells, but filled with equal volume of PBS. The remaining 54 wells were subjected to cell plating with a multichannel pipette, to each well was added 100 μL of culture medium containing corresponding cells. After cell plating was finished, the 96-well plate was tapped to make the cells evenly suspended, and placed in a 5% CO2 incubator and cultured at 37° C. for 24 h.
For Z-138 cells, in addition to the original medium (100 μL), 50 μL (3×) of drug was added, and duplicate wells were set for each concentration group. The plate was placed in a CO2 incubator and further cultured for 7 days. […]
On the technique in general: ATP-based viability assays read luminescence as a measure of living cells.

The next series has as its system ex vivo heart. As to the kind of experiment: Ex vivo heart experiments, QT interval.

In turn, `CC(=O)N1CCC(Nc2cc3c(cn2)C2(CC2)CN(C[C@H](O)CN2CCc4ccccc4C2)C3=O)CC1` [Example 1, (R)-7′-((1-acetylpiperidin-4-yl)amino)-2′-(3-(3,4-dihydroisoquinolin-2(1H)-yl)-2-hydroxypropyl)-2′,3′-dihydro-1′H-spiro[cyclopropane-1,4′-[2,6]naphthyridin]-1′-one] gave an IC50 with Z-138 cells of 3.07 nM. Moreover, the “effect on the QT interval” value in the series with ex vivo heart is given as “no effect on the QT interval”. `CC(=O)N1CCC(Nc2cc(C(=O)NC[C@H](O)CN3CCc4ccccc4C3)ncn2)CC1` [Compound A, (S)-6-((1-Acetylpiperidin-4-yl)amino)-N-(3-(3,4-dihydroisoquinolin-2(1H)-yl)-2-hydroxypropyl)pyrimidine-4-carboxamide] returned an IC50 with Z-138 cells of 19.5 nM. With `CC(=O)N1CC2(CC(Nc3cc4c(cn3)C3(CC3)CN(C[C@H](O)CN3CCc5ccccc5C3)C4=O)C2)C1` [Example 2, (R)-7′-((2-acetyl-2-azaspiro[3.3]hept-6-yl)amino)-2′-(3-(3,4-dihydroisoquinolin-2(1H)-yl)-2-hydroxypropyl)-2′,3′-dihydro-1′H-spiro[cyclopropane-1,4′-[2,6]naphthyridin]-1-one], the IC50 in the series on Z-138 cells was found to be 2.2 nM. In the series with ex vivo heart, the “effect on the QT interval” value is recorded as “no effect on the QT interval”. The matching figures for `CC(=O)N1CCC(Nc2ccc3c(c2)C(=O)N(C[C@H](O)CN2CCc4ccccc4C2)CC32CC2)CC1` [Compound B, (R)-7′-((1-Acetylpiperidin-4-yl)amino)-2′-(3-(3,4-dihydroisoquinolin-2(1H)-yl)-2-hydroxypropyl)-2′,3′-dihydro-1′H-spiro[cyclopropane-1,4′-isoquinolin]-1′-one, reference compound]: 4.33 nM and “significant prolongation of the QT interval”.

The term IC50 denotes the concentration needed to halve the response being measured. A higher IC50 goes with weaker potency in that assay.
